From patent publication US20120239131A1, “METHODS AND APPARATUS FOR TREATMENT OF ANEURYSMAL TISSUE” (Medtronic Vascular, Inc., priority 2011, published 2012) come the findings set out here.

Holding throughout (test): Aortic mural gene expression, RT-PCR (TLDA)
Format in all cases: in vivo, ApoE−/− mice
Common to all, as to settings: fold change over ApoE−/− control; aorta, 28 days Ang II infusion

One experiment relates to CSF1.
In the next experiment the test system is Runx3. The procedure, abridged: (§1)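 Relative expression (RQ) by TaqMan low density array qPCR, calibrated to pooled ApoE−/− control set at 1; CT ≧39 taken as detection limit. Aortae from ApoE−/− mice given AngII (1000 ng·kg^−1·min^−1, s.c. minipump, 28 days) with drug or water pretreatment from 1 week before.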
The next experiment relates to ITGAL. The procedure, abridged: as §1
The next experiment deals with TIMP2. The method, boiled down:
as §1

The test system of another experiment is MAPK8. The procedure, abridged:
as §1

In a further experiment the test system is CCR5. The method, boiled down:
as §1

Another experiment deals with Fibronectin -1. The procedure, abridged: as §1
In another experiment the test system is Rac2. The method, boiled down:
as §1

A further experiment relates to IL-7. The procedure, abridged: as §1
The test system of a further experiment is Cathepsin B. The method, boiled down: as §1
A further experiment has as its system Cybb. The procedure, abridged:
as §1

In another experiment the test system is CXCR4. The procedure, abridged: as §1
Another experiment deals with NFKb1.

Structures are written as SMILES.

Protocol for CSF1: (§2) AngII (1000 ng·kg^−1 of body weight·min^−1) was infused subcutaneously via Alzet mini-osmotic pumps for 28 days. All mice were maintained on the medicated chow (MI & MT) or medicated drinking water (MF & MD) treatments which were delivered daily for a total of 28 days following pump implantation.
(§3) All mice were sacrificed 28 days after pump implantation. Aortae were harvested and subjected to either histological analysis (Elastic Masson trichome, MAC2, CD31 and TUNEL staining) and analysis of mural gene expression.
(§4) Total RNA was extracted from homogenized aortas using the Qiazol lysis reagent and RNeasy Lipid Tissue Mini kit. DNAse treatment was included in the procedure. RNA concentration was determined utilizing the Quant iT RNA assay kit. Complimentary deoxyribonucleic acid (cDNA) was synthesized from 1 μg RNA using High reverse cDNA transcription kit. Briefly the reaction tubes containing RNA, reverse transcriptase, buffer, RNAse inhibitor, and nuclease free water were incubated at 25° C. for 10 minutes to allow annealing. […] The cDNA samples were cooled at 4° C. and stored at −80° C. until further use.
(§5) Real time PCR was performed using a 384-well Taqman low density array (TLDA) card. Each sample specific PCR mix contained 50 ng of total RNA converted to cDNA. The PCR reaction for Taqman assays contained 50 μl Master Mix (Taqman Universal PCR Master Mix,) and 50 ul of cDNA and RNAase free water. Assays were performed to include appropriate controls (no template control). The RT-PCR protocol included an initial step of 50° C. […] Fluorescence data was collected at 60° C. Fluorescence was quantified with ABI PRISM 7900HT Sequence Detection System. To verify amplification of a specific target cDNA, data generated was analyzed using SDS 2.2.3 software (Sequence Detection System Software, Applied Biosystems). […] For relative quantification (RQ), pooled ApoE−/− control was used as the calibrator (with expression equal to 1).
Protocol for NFKb1: as §2, §3, §4, §5

Take `CC(C)n1c(/C=C/C(O)CC(O)CC(=O)O)c(-c2ccc(F)cc2)c2ccccc21` (stereo not shown) [Fluvastatin]: in the experiment on CSF1, the CSF1 expression result was “− (0 to 1 = −)”. The Runx3 expression result in the experiment with Runx3 is “++ (1.51 to 3 = ++)”. Further, in the experiment with ITGAL, the ITGAL expression result is “++ (1.51 to 3 = ++)”. Also, the TIMP2 expression result with TIMP2 is “− (0 to 1 = −)”. Further, in the experiment on MAPK8, the MAPK8 expression entry is on record as “− (0 to 1 = −)”. Moreover, in the experiment on CCR5, the CCR5 expression result is “+++ (3.1 to 10 = +++)”. Moreover, in the experiment with Fibronectin -1, the “Fibronectin -1 expression” value is “− (0 to 1 = −)”. In addition, in the experiment on Rac2, the Rac2 expression entry was “+ (1.1 to 1.5 = +)”. For the same compound, the IL-7 expression entry in the experiment with IL-7 is “− (0 to 1 = −)”. Also, in the experiment on Cathepsin B, the “Cathepsin B expression” value is given as “+ (1.1 to 1.5 = +)”. Further, the Cybb expression result in the experiment with Cybb is listed as “++ (1.51 to 3 = ++)”. Also, the CXCR4 expression entry with CXCR4 is “+++ (3.1 to 10 = +++)”. In the experiment with NFKb1, the NFKb1 expression result is “− (0 to 1 = −)”.

Take `CCCc1nc2c(C)cc(-c3nc4ccccc4n3C)cc2n1Cc1ccc(-c2ccccc2C(=O)O)cc1` [Telmisartan]: in the experiment on CSF1, the CSF1 expression result is recorded as “− (0 to 1 = −)”. Further, the Runx3 expression entry in the experiment on Runx3 is “− (0 to 1 = −)”. Also, in the experiment with TIMP2, the TIMP2 expression result was “− (0 to 1 = −)”. In addition, the MAPK8 expression result with MAPK8 is “++ (1.51 to 3 = ++)”. Further, in the experiment with CCR5, the CCR5 expression result was “− (0 to 1 = −)”. In addition, the “Fibronectin -1 expression” value in the experiment with Fibronectin -1 is “− (0 to 1 = −)”. Moreover, the Rac2 expression entry with Rac2 is “− (0 to 1 = −)”. Also, in the experiment on IL-7, the IL-7 expression result was “+ (1.1 to 1.5 = +)”. Further, the “Cathepsin B expression” value in the experiment on Cathepsin B is reported as “− (0 to 1 = −)”. For the same compound, in the experiment with Cybb, the Cybb expression entry is reported as “− (0 to 1 = −)”. Further, in the experiment with CXCR4, the CXCR4 expression result is on record as “+++ (3.1 to 10 = +++)”. For the same compound, the NFKb1 expression entry in the experiment with NFKb1 is listed as “− (0 to 1 = −)”.
